PubChem BioAssay AID514 (SGCOxCompounds, 2006)

target: STE20-like serine/threonine-protein kinase (Homo sapiens) (UniProt Q9H2G2); assay: SLK binders by thermal stabilization, biophysical, purified human kinase, DSF (AID 514); conditions: differential scanning fluorimetry Tm shift, at 10 µM, protein 2 µM, buffer 10 mM HEPES, pH 7.5, NaCl 150 mM, hits give high values
Sequence (Q9H2G2 whole entry, looked up): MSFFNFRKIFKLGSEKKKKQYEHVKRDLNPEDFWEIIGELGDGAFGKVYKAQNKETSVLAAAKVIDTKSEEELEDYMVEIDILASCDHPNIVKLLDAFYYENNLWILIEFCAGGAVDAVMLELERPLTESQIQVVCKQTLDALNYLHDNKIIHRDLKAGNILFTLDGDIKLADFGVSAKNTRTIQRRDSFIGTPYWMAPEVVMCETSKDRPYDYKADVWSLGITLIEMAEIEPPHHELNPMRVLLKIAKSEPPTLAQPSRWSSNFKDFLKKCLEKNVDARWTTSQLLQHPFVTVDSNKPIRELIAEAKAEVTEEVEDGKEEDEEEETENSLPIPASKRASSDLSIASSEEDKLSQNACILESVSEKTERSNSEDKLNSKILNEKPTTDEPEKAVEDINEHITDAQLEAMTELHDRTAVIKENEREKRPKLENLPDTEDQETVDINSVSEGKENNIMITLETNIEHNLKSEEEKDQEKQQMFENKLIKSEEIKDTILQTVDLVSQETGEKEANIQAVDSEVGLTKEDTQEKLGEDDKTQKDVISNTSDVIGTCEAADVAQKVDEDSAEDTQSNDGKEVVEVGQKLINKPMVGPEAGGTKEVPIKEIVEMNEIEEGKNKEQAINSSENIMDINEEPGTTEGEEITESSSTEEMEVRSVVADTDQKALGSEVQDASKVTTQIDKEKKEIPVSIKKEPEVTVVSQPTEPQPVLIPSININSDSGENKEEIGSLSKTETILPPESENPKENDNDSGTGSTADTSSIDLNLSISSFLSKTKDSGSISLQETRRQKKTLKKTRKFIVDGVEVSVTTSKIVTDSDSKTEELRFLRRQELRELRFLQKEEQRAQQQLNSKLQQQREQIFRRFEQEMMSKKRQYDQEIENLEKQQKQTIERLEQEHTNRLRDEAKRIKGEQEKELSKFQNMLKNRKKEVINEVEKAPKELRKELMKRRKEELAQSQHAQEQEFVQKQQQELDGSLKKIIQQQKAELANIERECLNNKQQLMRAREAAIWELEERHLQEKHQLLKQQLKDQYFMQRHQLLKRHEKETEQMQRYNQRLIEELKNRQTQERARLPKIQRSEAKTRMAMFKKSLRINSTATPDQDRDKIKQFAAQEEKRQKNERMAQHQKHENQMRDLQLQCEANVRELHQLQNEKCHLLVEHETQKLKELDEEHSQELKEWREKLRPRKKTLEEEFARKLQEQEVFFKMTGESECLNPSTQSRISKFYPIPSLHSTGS

Which Tm shift does the source give for COc1ccc(C(=O)c2sc(Nc3cccc(C(F)(F)F)c3)nc2N)cc1 here?
Its Tm shift is 4.5 C.

Which Tm shift does the source give for CN(C)S(O)(O)c1ccc2c(c1)/C(=C/c1cc3c([nH]1)CCCC3)C(=O)N2 here?
Its Tm shift is 6.2 C.

How did the Tm shift turn out when NCCCn1cc(C2=C(c3c[nH]c4ccccc34)C(=O)NC2=O)c2ccccc21 was run?
Its Tm shift is 7.6 C.

How did the Tm shift turn out when COc1cncc(-c2cnc3ccc(NC4CCOCC4)nn23)c1 was run?
Its Tm shift is 3.4 C.

O=C(Nc1cccc(Nc2cc(Nc3cccc(C(F)(F)F)c3)ncn2)c1)C1CC1 was tested. Which Tm shift did it give?
The Tm shift was 3.4 C.

How did the Tm shift turn out when COc1cccc(-c2cnn3ccc(Nc4cccc(Cl)c4)nc23)c1 was run?
Its Tm shift is 4.7 C.

For CC(C)(C)n1nc(-c2ccc(Cl)cc2)c2c(N)ncnc21, which Tm shift is on record?
Its Tm shift is 3.6 C.

For CCC(CO)Nc1ccc2ncc(-c3ccc(O)cc3)n2n1 (configuration not stated), which Tm shift is on record?
Its Tm shift is 3.7 C.

Which Tm shift does the source give for ON(O)c1ccc(-c2nc(-c3ccc(F)cc3)c(-c3ccncc3)[nH]2)cc1 here?
The Tm shift was 5.4 C.

Nc1cccc(-c2cnn3ccc(Nc4cccc(Cl)c4)nc23)c1 was tested. Which Tm shift did it give?
Its Tm shift is 3.7 C.

For O=C1Nc2ccc(Br)cc2/C1=C/c1cc2c([nH]1)CCCC2, which Tm shift is on record?
Its Tm shift is 3.6 C.

For Cn1cc(/C=C2\C(=O)Nc3ccc(S(N)(=O)=O)cc32)c2ccccc21, which Tm shift is on record?
The Tm shift was 5 C.

For COc1ccc(Cl)cc1NC(=O)Nc1cc(C)nc2ccccc12, which Tm shift is on record?
The Tm shift was 3.4 C.

With COc1ccc(Nc2nc(N)c(C(=O)c3ccc(OC)cc3)s2)cc1 as the molecule, how does the Tm shift read?
The Tm shift was 3.9 C.

Which Tm shift does the source give for NCCNc1ncc(C(N)=O)c(Nc2cccc(C(F)(F)F)c2)n1 here?
Its Tm shift is 3.3 C.

Which Tm shift does the source give for Oc1cccc(-c2cnc3ccc(NC4CCOCC4)nn23)c1 here?
Its Tm shift is 4.6 C.

Which Tm shift does the source give for CCn1cnc2c(Nc3cccc(Cl)c3)nc(N[C@@H]3CCCC[C@@H]3N)nc21 here?
Its Tm shift is 6.4 C.

For O=C(Nc1cccc(Nc2nccc(Nc3cccc(C(F)(F)F)c3)n2)c1)C1CC1, which Tm shift is on record?
Its Tm shift is 3.7 C.

c1csc(-c2cnc3ccc(NCC4CC4)nn23)c1 was tested. Which Tm shift did it give?
The Tm shift was 3.3 C.

With CC(C)[C@@H](CO)Nc1ccc2ncc(-c3cccc(OC(F)(F)F)c3)n2n1 as the molecule, how does the Tm shift read?
The Tm shift was 4.3 C.

How did the Tm shift turn out when Nc1ccc(-c2cnn3ccc(Nc4cccc(Cl)c4)nc23)cc1 was run?
The Tm shift was 4 C.

Which Tm shift does the source give for O=C1NC(=O)C(c2c[nH]c3ccccc23)=C1c1c[nH]c2ccccc12 here?
The Tm shift was 4.6 C.

For O=C1NC(=O)C(c2cn(CCCn3ccnc3)c3ccccc23)=C1Nc1ccccc1, which Tm shift is on record?
Its Tm shift is 6.3 C.

How did the Tm shift turn out when CCCNC(=O)Nc1ccc(Oc2ncnc3cc(OC)c(OC)cc23)cc1Cl was run?
Its Tm shift is 5.8 C.

Which Tm shift does the source give for Nc1cccc(-c2cc3c(Oc4cccc(O)c4)ncnc3[nH]2)c1 here?
The Tm shift was 5.7 C.

O=C1Nc2ccccc2/C1=C\c1cnc[nH]1 was tested. Which Tm shift did it give?
Its Tm shift is 3.3 C.

How did the Tm shift turn out when Clc1cccc(-c2cnc3ccc(NC4CCOCC4)nn23)c1 was run?
The Tm shift was 3.9 C.

For COc1cc2ncnc(Nc3ccc(NC(=O)c4ccccc4)cc3)c2cc1OC, which Tm shift is on record?
Its Tm shift is 5.5 C.

Which Tm shift does the source give for FC(F)(F)Oc1cccc(-c2cnc3ccc(NC4CCOCC4)nn23)c1 here?
The Tm shift was 3.6 C.

Which Tm shift does the source give for Cc1[nH]c(/C=C2\C(=O)Nc3ccc(S(=O)(=O)N(C)c4cccc(Cl)c4)cc32)c(C)c1C(=O)N1CCN(C)CC1 here?
Its Tm shift is 7.7 C.

With COc1cc2ncnc(Nc3cccc(O)c3)c2cc1OC as the molecule, how does the Tm shift read?
Its Tm shift is 3.2 C.

CN(C)CC1CCn2c(c(C3=C(c4cn(C)c5ccccc45)C(=O)NC3=O)c3ccccc32)C1 (configuration not stated) was tested. Which Tm shift did it give?
The Tm shift was 4.2 C.

With CC(=O)c1cccc(-c2cnc3ccc(N[C@H](CO)C(C)C)nn23)c1 as the molecule, how does the Tm shift read?
The Tm shift was 3.7 C.

O=Nc1c(-c2c(O)[nH]c3ccccc23)[nH]c2ccccc12 was tested. Which Tm shift did it give?
The Tm shift was 3.9 C.

How did the Tm shift turn out when CC(C)[C@@H](CO)Nc1ccc2ncc(-c3cccc(F)c3)n2n1 was run?
Its Tm shift is 4.2 C.

For CCC(CO)Nc1ccc2ncc(-c3ccc(F)c(Cl)c3)n2n1 (configuration not stated), which Tm shift is on record?
The Tm shift was 3.8 C.

For N#Cc1cnc2cnc(NCc3cccnc3)cc2c1Nc1ccc(F)c(Cl)c1, which Tm shift is on record?
The Tm shift was 6.1 C.

With COc1cncc(-c2cnc3ccc(N[C@H](CO)C(C)C)nn23)c1 as the molecule, how does the Tm shift read?
Its Tm shift is 3.1 C.

With Clc1cccc(Nc2ccn3ncc(-c4ccc5c(c4)OCO5)c3n2)c1 as the molecule, how does the Tm shift read?
Its Tm shift is 3.7 C.

Oc1ccc(Nc2nccn3c(-c4cn[nH]c4)cnc23)cc1 was tested. Which Tm shift did it give?
Its Tm shift is 4.7 C.

Which Tm shift does the source give for Oc1cccc(-c2cnc3ccc(NCC4CC4)nn23)c1 here?
Its Tm shift is 3.2 C.

With CC(C)[C@@H](CO)Nc1ccc2ncc(-c3cccc(O)c3)n2n1 as the molecule, how does the Tm shift read?
Its Tm shift is 4.5 C.

With COc1cc(/C=C/C(=O)CC(=O)/C=C/c2ccc(O)c(OC)c2)ccc1O as the molecule, how does the Tm shift read?
Its Tm shift is 3.2 C.

How did the Tm shift turn out when Nc1cc2ncnc(Nc3cccc(Br)c3)c2cc1N was run?
Its Tm shift is 5.7 C.

With c1ccc(-c2cnc3ccc(NCc4ccco4)nn23)cc1 as the molecule, how does the Tm shift read?
The Tm shift was 3.1 C.

For COc1c(C=O)c(O)cc2c1C(=O)c1ccccc1C2=O, which Tm shift is on record?
The Tm shift was 5.4 C.

Clc1ccc(-c2cnc3ccc(NC4CCOCC4)nn23)cc1 was tested. Which Tm shift did it give?
The Tm shift was 3.1 C.

CN(C)CCCn1cc(C2=C(c3c[nH]c4ccccc34)C(=O)NC2=O)c2ccccc21 was tested. Which Tm shift did it give?
The Tm shift was 6.8 C.

O=c1c(O)c(-c2ccc(O)c(O)c2)oc2cc(O)cc(O)c12 was tested. Which Tm shift did it give?
The Tm shift was 5.7 C.

With Cn1cc(C2=C(c3c4n(c5ccccc35)CCC(CN)C4)C(=O)NC2=O)c2ccccc21 (configuration not stated) as the molecule, how does the Tm shift read?
The Tm shift was 4.5 C.

Which Tm shift does the source give for Cc1cc(Nc2nc(-c3ccccc3)nc3ccccc23)n[nH]1 here?
Its Tm shift is 6.4 C.

For CC(C)[C@@H](CO)Nc1ccc2ncc(-c3ccc(C#N)cc3)n2n1, which Tm shift is on record?
Its Tm shift is 3.7 C.

Which Tm shift does the source give for CC(O)(O)C1(O)C[C@@H]2O[C@@]1(C)n1c3ccccc3c3c4c(c5c6ccccc6n2c5c31)C(=O)NC4 (some centres not stated) here?
Its Tm shift is 6.3 C.

With Oc1ccc(-c2nc(-c3ccc(F)cc3)c(-c3ccncc3)[nH]2)cc1 as the molecule, how does the Tm shift read?
The Tm shift was 4.4 C.

With Nc1nc(Nc2cccc(Cl)c2)sc1C(=O)c1ccc(F)cc1 as the molecule, how does the Tm shift read?
The Tm shift was 3.7 C.

For O=C1NCc2c1c1c3ccccc3[nH]c1c1[nH]c3ccccc3c21, which Tm shift is on record?
Its Tm shift is 5.1 C.

Which Tm shift does the source give for COc1ccc2c(c1)/C(=C/c1cnc[nH]1)C(=O)N2 here?
The Tm shift was 3.3 C.

Which Tm shift does the source give for O=Nc1c(-c2c(O)[nH]c3ccc(I)cc23)[nH]c2ccccc12 here?
The Tm shift was 3.7 C.

For Fc1ccc(-c2cnc3ccc(NC4CCOCC4)nn23)cc1, which Tm shift is on record?
Its Tm shift is 3.6 C.

How did the Tm shift turn out when Cc1nc(N)sc1-c1ccnc(Nc2cccc(-n3oo3)c2)n1 was run?
The Tm shift was 3.6 C.

With Cn1c(O)c(C2=c3ccccc3=NC2=O)[nH]c1=S as the molecule, how does the Tm shift read?
Its Tm shift is 3.4 C.

Which Tm shift does the source give for Clc1cccc(-c2cnc3ccc(NCCc4ccccn4)nn23)c1 here?
Its Tm shift is 3.5 C.

How did the Tm shift turn out when Fc1cccc(-c2cnc3ccc(NC4CCOCC4)nn23)c1 was run?
The Tm shift was 4.1 C.

For O=Nc1c(-c2c(O)[nH]c3cc(Br)ccc23)[nH]c2ccccc12, which Tm shift is on record?
The Tm shift was 4.6 C.

For Nc1nc(Nc2ccc(S(N)(=O)=O)cc2)nn1C(=S)Nc1c(F)cccc1F, which Tm shift is on record?
The Tm shift was 12.1 C.

How did the Tm shift turn out when O=C(c1ccc(Nc2nccc(-c3cc4ccccc4s3)n2)cc1)N1CCC(N2CCCC2)CC1 was run?
Its Tm shift is 7.3 C.

For CNC(=O)c1cc(Oc2ccc(NC(=O)Nc3ccc(C)c(C(F)(F)F)c3)cc2)ccn1, which Tm shift is on record?
The Tm shift was 8 C.

For CC(C)C(CO)Nc1nc(Nc2cc(N)cc(Cl)c2)c2ncn(C(C)C)c2n1 (configuration not stated), which Tm shift is on record?
The Tm shift was 6.2 C.

For CCN(CC)CCNC(=O)c1c(C)[nH]c(/C=C2\C(=O)Nc3ccc(Cl)cc32)c1C, which Tm shift is on record?
The Tm shift was 7.5 C.

How did the Tm shift turn out when COc1ccccc1-c1cnc2[nH]c(=O)n(C3CCCC3)c2n1 was run?
Its Tm shift is 3.3 C.

For CCC(CO)Nc1ccc2ncc(-c3cccc(OC(F)(F)F)c3)n2n1 (configuration not stated), which Tm shift is on record?
The Tm shift was 3.6 C.

How did the Tm shift turn out when CCOc1cc2ncnc(Nc3cccc(Br)c3)c2cc1OCC was run?
The Tm shift was 7.9 C.

Which Tm shift does the source give for CC(C)(C)n1nc(-c2cccc3ccccc23)c2c(N)ncnc21 here?
The Tm shift was 6.1 C.

For OCC(O)CCO/N=C1/C(c2c(O)[nH]c3ccccc23)=Nc2ccccc21 (configuration not stated), which Tm shift is on record?
The Tm shift was 4.7 C.

For N=C(N)SCCCn1cc(C2=C(c3c[nH]c4ccccc34)C(=O)NC2=O)c2ccccc21, which Tm shift is on record?
Its Tm shift is 10.6 C.

With NC(=O)Nc1sc(-c2ccccc2)cc1C(N)=O as the molecule, how does the Tm shift read?
The Tm shift was 3.5 C.

For CC(C)[C@@H](CO)Nc1ccc2ncc(-c3cccc(C(F)(F)F)c3)n2n1, which Tm shift is on record?
The Tm shift was 4.8 C.

How did the Tm shift turn out when Nc1ncnc2c1c(I)cn2[C@@H]1O[C@H](CO)C(O)C1O (some centres not stated) was run?
The Tm shift was 4.2 C.

How did the Tm shift turn out when COc1ccc(Nc2nc(N)c(C(=O)c3ccc(Cl)cc3)s2)cc1 was run?
Its Tm shift is 4.4 C.

With CC(C)[C@@H](CO)Nc1ccc2ncc(-c3cccc(Cl)c3)n2n1 as the molecule, how does the Tm shift read?
The Tm shift was 4.7 C.

For COc1cc2ncnc(Nc3cccc(Br)c3)c2cc1OC, which Tm shift is on record?
Its Tm shift is 6.9 C.

With O=C1Nc2ccccc2/C1=C/c1ccc[nH]1 as the molecule, how does the Tm shift read?
Its Tm shift is 3.1 C.
